Source: paper PMC9151520 (Archives of Toxicology, 2022)
“And” between values parts separate entries of the source, which are not always exact repeats. Identical values can stand only once. Counter-ions that a name gives are not always drawn. Like-named read-outs stand apart in the source and are kept apart here.

Tests used:
[1] = tested on: p53 signaling (p53RE-bla HCT-116 cells); assay: cells; assay type: cell-based; settings: for EC50: read-out: p53 activation EC50
[2] = tested on: p53 signaling (p53RE-bla HCT-116 cells)
[3] = tested on: p53 signaling (p53RE-bla HCT-116 cells); remark: listed apart in the source
[4] = tested on: p53RE-bla HCT-116 cells
[5] = tested on: p53 signaling (p53RE-bla HCT-116 cells); assay: cells; settings: Homo sapiens; for Emax: HCT-116, read-out: p53 activation efficacy
[6] = HCT-116, read-out: p53 activation EC50, HLM
[7] = HCT-116, read-out: p53 activation EC50

| Compound | p53 activation efficacy [1] | p53 activation EC50 [2] | p53 activation efficacy [2] | p53 activation EC50 [3] | Viability EC50 [4] | Viability efficacy [4] | Emax [5] | p53 activation EC50, No MS [1] | p53 activation Efficacy, No MS [1] | p53 activation EC50, HLM [3] | Viability EC50, HLM [4] | Viability EC50, No MS [4] | Viability EC50, RLM [4] | Viability Efficacy, HLM [4] | Viability Efficacy, No MS [4] | Viability Efficacy, RLM [4] | EC50 [5, 6] | also measured |
| --- | --- | --- | --- | --- | --- | --- | --- | --- | --- | --- | --- | --- | --- | --- | --- | --- | --- | --- |
| COC(=O)N(OC)c1ccccc1COc1ccn(-c2ccc(Cl)cc2)n1 [Pyraclostrobin] | 41.5523 | inactive | inactive | inactive | inactive | inactive | 36.3% | – | – | – | – | – | – | – | – | – | – | Emax ([1]; Homo sapiens, HCT-116, read-out: p53 activation efficacy): 36.4%; EC50 [1]: 2.62 µM |
| Cl[C@H]1[C@H](Cl)[C@@H](Cl)[C@H](Cl)[C@@H](Cl)[C@@H]1Cl [beta-Hexachlorocyclohexane] | – | – | – | – | – | – | – | inactive | inactive | inactive | inactive | inactive | inactive | inactive | inactive | inactive | 47.3 µM | p53 activation EC50, RLM [2]: inactive; p53 activation Efficacy, RLM [2]: inactive |
| COP(=O)(OC)OC(=CCl)c1cc(Cl)c(Cl)cc1Cl [Tetrachlorovinphos] | – | – | – | – | – | – | – | inactive | inactive | inactive | inactive | inactive | inactive | inactive | inactive | inactive | 16.4 µM | – |
| Nc1ccc(-c2ccc(N)c(Cl)c2)cc1Cl [3,3'-Dichlorobenzidine] | – | inactive | inactive | inactive | inactive | inactive | 33.9% | – | – | – | – | – | – | – | – | – | – | EC50 [1]: 16.4 µM |
| Nc1ccn([C@@H]2O[C@H](CO)[C@@H](O)[C@@H]2O)c(=O)n1 [Cytarabine hydrochloride] | 74.252 | inactive | inactive | inactive | inactive | inactive | – | – | – | – | – | – | – | – | – | – | – | EC50 [5, 7]: 3.49 µM |
| CCOP(=S)(OCC)SC(CCl)N1C(=O)c2ccccc2C1=O (centres unmarked) [Dialifor] | inactive | – | 52.0707 | inactive | inactive | inactive | – | – | – | – | – | – | – | – | – | – | – | p53 activation EC50 [1]: inactive; EC50 [5, 7]: 3.03 µM |
| Nc1ccc2c(O)cc(S(=O)(=O)O)cc2c1 | 61.5673 and 83.6027 | – | 57.1256 and 31.0337 | inactive | inactive | inactive | 27% | – | – | – | – | – | – | – | – | – | – | EC50 ([2]; read-out: p53 activation EC50): 10.9 µM |
| O=c1ccc2ccccc2o1 [Coumarin] | – | – | – | – | – | – | – | inactive | inactive | inactive | inactive | inactive | inactive | inactive | inactive | inactive | 28.6 µM | p53 activation EC50, RLM [2]: inactive; p53 activation Efficacy, RLM [2]: inactive |
